Results on one molecule are retold here after PMC5919452 (Japanese Journal of Cancer Research : Gann, 1994).

In experiment [1] the target is insulin receptor kinase (Homo sapiens, UniProt P06213). As to the kind of experiment: insulin receptor kinase inhibition. The experiment is classed as biochemical. Particulars: read-out: IC50 for insulin receptor kinase.
Experiment [2] concerns cAMP‐dependent protein kinase. As to the kind of experiment: cAMP-dependent protein kinase inhibition. Particulars: 20 μM. It is filed as biochemical.
Experiment [3] concerns the target erbB‐2 (Homo sapiens, UniProt P04626). Description: erbB-2 tyrosine kinase inhibition. The experiment is classed as biochemical. The conditions noted are these: read-out: IC50 for erbB‐2.
The target in experiment [4] is Cdc2 kinase (Homo sapiens, UniProt P06493). Description: Cdc2 kinase inhibition. The experiment is classed as biochemical. The conditions noted are these: 20 μM.
Sequence of Cdc2 kinase (P06493 whole entry): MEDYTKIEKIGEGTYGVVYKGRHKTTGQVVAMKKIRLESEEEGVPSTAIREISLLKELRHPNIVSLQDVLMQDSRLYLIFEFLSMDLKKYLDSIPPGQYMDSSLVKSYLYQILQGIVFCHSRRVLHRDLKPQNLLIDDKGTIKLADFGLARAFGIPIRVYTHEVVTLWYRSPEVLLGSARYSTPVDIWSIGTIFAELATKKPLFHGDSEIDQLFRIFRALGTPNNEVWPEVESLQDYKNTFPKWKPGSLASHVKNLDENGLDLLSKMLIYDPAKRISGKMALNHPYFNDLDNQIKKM
Sequence of Cdc2 kinase (P14635 whole entry partner): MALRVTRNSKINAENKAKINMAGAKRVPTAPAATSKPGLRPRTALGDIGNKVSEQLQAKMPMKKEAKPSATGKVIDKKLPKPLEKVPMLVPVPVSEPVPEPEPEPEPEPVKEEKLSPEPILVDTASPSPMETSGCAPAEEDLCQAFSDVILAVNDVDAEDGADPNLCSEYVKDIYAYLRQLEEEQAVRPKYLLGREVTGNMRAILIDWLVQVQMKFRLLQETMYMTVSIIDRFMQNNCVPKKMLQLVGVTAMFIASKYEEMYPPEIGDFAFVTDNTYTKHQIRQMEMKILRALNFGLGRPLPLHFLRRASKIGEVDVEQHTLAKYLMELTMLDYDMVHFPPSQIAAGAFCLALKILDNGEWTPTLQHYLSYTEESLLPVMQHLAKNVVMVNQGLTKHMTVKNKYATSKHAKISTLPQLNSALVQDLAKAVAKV
The target of experiment [5] is T1, EGF receptor (Homo sapiens, UniProt P00533). Description: kinetic study of kinase inhibition. The experiment is classed as biochemical.
T1 sequence (P00533 25-1210): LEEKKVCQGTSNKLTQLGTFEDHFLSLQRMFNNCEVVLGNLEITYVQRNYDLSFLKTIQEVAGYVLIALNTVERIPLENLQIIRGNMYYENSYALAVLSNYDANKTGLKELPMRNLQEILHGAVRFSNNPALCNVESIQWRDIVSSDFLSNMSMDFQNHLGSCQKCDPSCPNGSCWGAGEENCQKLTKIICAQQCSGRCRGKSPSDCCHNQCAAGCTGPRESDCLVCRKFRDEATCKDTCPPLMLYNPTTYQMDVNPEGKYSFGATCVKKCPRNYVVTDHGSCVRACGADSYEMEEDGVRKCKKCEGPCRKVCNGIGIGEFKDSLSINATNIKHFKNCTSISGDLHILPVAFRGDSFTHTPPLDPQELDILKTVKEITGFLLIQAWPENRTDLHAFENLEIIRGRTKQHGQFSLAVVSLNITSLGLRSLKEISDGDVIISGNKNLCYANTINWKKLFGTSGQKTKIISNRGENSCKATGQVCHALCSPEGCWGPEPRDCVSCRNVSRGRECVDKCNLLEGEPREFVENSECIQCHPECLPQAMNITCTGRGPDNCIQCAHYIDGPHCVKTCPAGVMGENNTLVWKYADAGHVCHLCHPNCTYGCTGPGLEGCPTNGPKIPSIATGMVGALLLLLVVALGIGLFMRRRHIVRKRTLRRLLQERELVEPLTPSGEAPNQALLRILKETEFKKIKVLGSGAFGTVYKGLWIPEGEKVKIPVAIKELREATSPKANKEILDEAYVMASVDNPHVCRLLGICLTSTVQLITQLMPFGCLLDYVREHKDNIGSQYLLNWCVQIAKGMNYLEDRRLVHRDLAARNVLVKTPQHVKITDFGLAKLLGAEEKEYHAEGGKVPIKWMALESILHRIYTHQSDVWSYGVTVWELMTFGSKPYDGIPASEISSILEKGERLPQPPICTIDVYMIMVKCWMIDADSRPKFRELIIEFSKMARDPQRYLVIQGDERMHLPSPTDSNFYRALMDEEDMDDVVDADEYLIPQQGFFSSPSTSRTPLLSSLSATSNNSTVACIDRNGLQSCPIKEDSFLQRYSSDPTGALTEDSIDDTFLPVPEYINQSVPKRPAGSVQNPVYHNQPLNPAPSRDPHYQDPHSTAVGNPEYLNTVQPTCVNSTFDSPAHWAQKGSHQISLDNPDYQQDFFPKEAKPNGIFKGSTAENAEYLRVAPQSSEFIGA
The test system of experiment [6] is casein kinase I. As to the kind of experiment: casein kinase I inhibition. The experiment is classed as biochemical. Particulars: 20 μM.
Experiment [7] concerns the target T1, EGF receptor. As to the kind of experiment: autophosphorylation of EGF receptor in A431 cells. The experiment is classed as cell-based.
The target in experiment [8] is epidermal growth factor (EGF) receptor kinase (Homo sapiens, UniProt P00533). As to the kind of experiment: EGF receptor kinase inhibition. It is filed as biochemical. Particulars: read-out: IC50 for epidermal growth factor (EGF) receptor kinase.
Sequence of epidermal growth factor (EGF) receptor kinase (P00533 25-1210): as above
Experiment [9] deals with p60^c‐src (Homo sapiens, UniProt P12931). As to the kind of experiment: p60c-src tyrosine kinase inhibition. The experiment is classed as biochemical. The conditions noted are these: read-out: IC50 for p60^c‐src.
Sequence of p60^c‐src (P12931 whole entry): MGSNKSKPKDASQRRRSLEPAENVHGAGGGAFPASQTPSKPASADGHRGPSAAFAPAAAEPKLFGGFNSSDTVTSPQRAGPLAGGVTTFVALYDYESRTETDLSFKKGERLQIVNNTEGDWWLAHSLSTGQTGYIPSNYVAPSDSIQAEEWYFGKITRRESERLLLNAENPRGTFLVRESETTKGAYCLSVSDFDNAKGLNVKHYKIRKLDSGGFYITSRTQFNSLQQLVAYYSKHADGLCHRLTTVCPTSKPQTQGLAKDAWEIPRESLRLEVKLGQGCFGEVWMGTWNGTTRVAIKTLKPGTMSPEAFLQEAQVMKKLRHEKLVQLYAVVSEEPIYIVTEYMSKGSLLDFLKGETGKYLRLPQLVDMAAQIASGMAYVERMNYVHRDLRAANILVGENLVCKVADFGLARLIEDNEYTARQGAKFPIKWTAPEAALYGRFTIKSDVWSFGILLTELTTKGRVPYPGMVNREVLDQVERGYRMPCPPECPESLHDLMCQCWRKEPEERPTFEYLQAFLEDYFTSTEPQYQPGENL
Experiment [10] relates to casein kinase II. As to the kind of experiment: casein kinase II inhibition. It is filed as biochemical. The conditions noted are these: 20 μM.
For experiment [11], the target named is p43^v‐abl. As to the kind of experiment: p43v-abl tyrosine kinase inhibition. The experiment is classed as biochemical. The conditions noted are these: read-out: IC50 for p43^v‐abl.
For experiment [12], the target named is protein kinase C. As to the kind of experiment: protein kinase C inhibition. The experiment is classed as biochemical. Particulars: read-out: IC50 for protein kinase C; serine/threonine kinase.

Sequence of erbB‐2 (P04626 23-1255, species assumed): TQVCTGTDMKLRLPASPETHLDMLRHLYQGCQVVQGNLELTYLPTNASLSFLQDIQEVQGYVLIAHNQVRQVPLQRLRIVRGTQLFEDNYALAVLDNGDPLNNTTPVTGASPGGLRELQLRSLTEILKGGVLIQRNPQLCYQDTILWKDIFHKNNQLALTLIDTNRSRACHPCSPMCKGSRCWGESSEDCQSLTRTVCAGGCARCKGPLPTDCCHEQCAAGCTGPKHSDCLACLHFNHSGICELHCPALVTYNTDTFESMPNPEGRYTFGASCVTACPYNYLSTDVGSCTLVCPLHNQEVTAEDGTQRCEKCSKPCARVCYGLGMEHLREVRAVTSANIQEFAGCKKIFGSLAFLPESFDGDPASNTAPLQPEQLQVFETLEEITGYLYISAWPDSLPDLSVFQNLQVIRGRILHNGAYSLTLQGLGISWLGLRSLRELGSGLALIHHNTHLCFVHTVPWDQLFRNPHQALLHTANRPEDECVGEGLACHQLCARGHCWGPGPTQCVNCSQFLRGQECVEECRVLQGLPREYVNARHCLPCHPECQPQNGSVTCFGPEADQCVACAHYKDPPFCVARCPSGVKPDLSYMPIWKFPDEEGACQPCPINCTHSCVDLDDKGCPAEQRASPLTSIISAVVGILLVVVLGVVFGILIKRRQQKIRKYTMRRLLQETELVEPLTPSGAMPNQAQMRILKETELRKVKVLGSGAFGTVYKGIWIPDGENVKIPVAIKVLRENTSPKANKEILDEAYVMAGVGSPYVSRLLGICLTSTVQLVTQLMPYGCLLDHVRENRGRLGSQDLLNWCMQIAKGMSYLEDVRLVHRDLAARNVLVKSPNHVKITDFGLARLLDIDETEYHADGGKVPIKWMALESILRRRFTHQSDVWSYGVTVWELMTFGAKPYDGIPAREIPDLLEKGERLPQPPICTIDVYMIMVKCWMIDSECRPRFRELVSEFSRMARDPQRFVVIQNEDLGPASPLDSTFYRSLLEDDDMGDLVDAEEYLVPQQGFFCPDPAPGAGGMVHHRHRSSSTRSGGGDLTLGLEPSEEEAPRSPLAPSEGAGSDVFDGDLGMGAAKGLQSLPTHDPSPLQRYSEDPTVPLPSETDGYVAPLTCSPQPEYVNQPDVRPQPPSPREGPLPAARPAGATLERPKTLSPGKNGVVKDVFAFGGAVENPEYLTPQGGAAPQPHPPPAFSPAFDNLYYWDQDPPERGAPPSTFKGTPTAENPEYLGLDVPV

Usually IC50 stands for the concentration that gives 50% inhibition. With `O=C1OC(c2ccc(O)c(O)c2)=C/C1=C\c1ccc(O)c(O)c1` [BE‐23372M], the IC50 in [1] was determined as 3.3 µM; in [3], 0.42 µM; in experiment [8], 0.03 µM; in experiment [9], 4.5 µM; in experiment [11], 1 µM; in experiment [12], 4.1 µM. In addition, the “inhibition of cAMP‐dependent protein kinase” value in [2] is “not inhibited”. The “inhibition of Cdc2 kinase” value in [4] is reported as “not inhibited”. Besides, in experiment [5] (ATP), the “mode of inhibition with respect to ATP” value is “competitive”. Moreover, the “mode of inhibition with respect to the substrate peptide” value in experiment [5] (substrate peptide) was “competitive”. Besides, the “inhibition of casein kinase I” value in experiment [6] was “not inhibited”. Moreover, the “Autophosphorylation of EGP receptor in A431 cells” value in experiment [7] is “inhibited”. For the same molecule, in experiment [10], the “inhibition of casein kinase II” value is given as “not inhibited”.
